Among the data in PubChem BioAssay (NCI) are TGI and GI50 values, retold here.

What all share (assay): inhibition of tumour cell growth, NCI panel, 48 h
The test system of assay [1] is HCT-15 colon.
In assay [2] the test system is HOP-62 NSCLC.
For assay [3], the system named is HT29 colon.
Assay [4] relates to MDA-MB-435.
For assay [5], the system named is MOLT-4 leukemia.
Assay [6] deals with NCI-H460 lung.
For assay [7], the system named is OVCAR-3 ovarian.
In assay [8] the test system is OVCAR-4 ovarian.
For assay [9], the system named is SF-268 CNS.
The test system of assay [10] is SR leukemia.

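A five-concentration, 48-hour dose response in 96-well plates underlies each endpoint, interpolated linearly between surrounding concentrations. Here, GI50 denotes the concentration required for 50% inhibition of growth. TGI denotes the concentration required for complete inhibition of growth.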

Take `O=C(c1ccc(F)cc1)c1cccc(C(=O)c2ccc(F)cc2)n1`: the TGI was above 100 µM in assay [1]; 48.6 µM in assay [2]; above 100 µM in assay [3]; above 100 µM in assay [4]; above 100 µM in assay [5]; above 100 µM in [6]. Moreover, the TGI in assay [7] is above 100 µM; in assay [8], above 100 µM; in assay [9] it was 67.8 µM; in assay [10], above 100 µM.
As for `CNC(=O)n1ccc2cc(Oc3ccnc(NC(=O)c4ccc(C5CCN(CCO)CC5)cc4)c3)c(OCCOC)cc21`, the GI50 in assay [1] is 4.42 µM; in assay [2], 4.56 µM; in [3], 0.801 µM; in [4], 3.2 µM; in [5] it was 2.65 µM; in [6], 3.22 µM. Moreover, the GI50 is 3.67 µM in assay [7], 1.99 µM in assay [8], 10.2 µM in [9] and 2.27 µM in [10]. For the same compound, the TGI was found to be 15.6 µM in assay [1]; 18.6 µM in assay [2]; 11.1 µM in [3]; 11.8 µM in assay [4]; 12.7 µM in assay [5]; 10.2 µM in assay [6]. The TGI in assay [7] came to 11 µM; in [8] it was 5.78 µM; in [9], 23 µM; in assay [10], 25 µM.
Regarding `CC/C=C\C=C/C(=O)N/C=C/CC1Cc2cccc(O)c2C(=O)O1` (centres undefined), the GI50 is 13.6 µM in assay [1]; 14.5 µM in assay [2]; 23.5 µM in [3]; 3 µM in [4]; 13.4 µM in assay [5]; 24.3 µM in [6]. Moreover, the GI50 is 15.1 µM in assay [7], 44.4 µM in assay [8], 15.1 µM in assay [9] and 2.22 µM in assay [10]. The TGI is 42 µM in assay [1]; 50.5 µM in assay [2]; 53.7 µM in [3]; 10.7 µM in [4]; 42.2 µM in assay [5]; 62.1 µM in assay [6]. In addition, the TGI in assay [7] was 39.7 µM; in assay [8], above 100 µM; in assay [9], 53.3 µM; in assay [10], 6.2 µM.
As for `O=CNc1c(Cl)cc2c(c1Cl)Cc1cc([N+](=O)[O-])ccc1-2`, the GI50 in assay [1] is 3.27 µM; in [2], 5.76 µM; in [3], 4.41 µM; in [4], 1.46 µM; in [5], 2.13 µM; in assay [6], 2.88 µM. For the same compound, the GI50 in assay [7] is 1.34 µM; in assay [8], 6.11 µM; in [9] it was 6.63 µM; in assay [10], 2.61 µM. Moreover, the TGI in assay [1] was above 100 µM; in assay [2] it was above 67.5 µM; in [3] it was above 54.8 µM; in assay [4], 3.63 µM; in assay [5], above 100 µM; in assay [6] it was 39.5 µM. Also, the TGI was 8.87 µM in [7], above 100 µM in [8], above 100 µM in assay [9] and above 63.1 µM in assay [10].
As for `CCCCOc1ccc(NC(N)=Nc2ccc(Cl)cc2)cc1`, the TGI was 23.1 µM in assay [1]; 2.86 µM in [2]; 11.3 µM in assay [3]; 23.4 µM in assay [4]; above 42 µM in assay [5]; 8.91 µM in assay [6]. For the same compound, the TGI in assay [7] is 22.7 µM; in assay [8], 17.5 µM; in assay [9], 12.9 µM; in assay [10], 47.6 µM.
For the compound `CCN(CC)c1ccc(C(=C2C=CC(=[N+](CC)Cc3cccc(S(=O)(=O)O)c3)C=C2)c2ccc(N(CC)Cc3cccc(S(=O)(=O)O)c3)cc2)cc1`, the GI50 in assay [1] is 28.5 µM; in assay [2] it was 4.59 µM; in assay [3], 3.4 µM; in [4] it was 4.07 µM; in [5], 11.1 µM; in [6], 3.93 µM. Moreover, the GI50 in [7] was 5.21 µM; in assay [8] it was 8.71 µM; in assay [9], 4.12 µM. Also, the TGI in assay [1] was above 100 µM; in assay [2] it was above 96.6 µM; in [3] it was above 88.9 µM; in assay [4] it was above 100 µM; in [5] it was above 89.7 µM; in assay [6] it was 39.1 µM. Further, the TGI in assay [7] was 37.4 µM; in assay [8] it was above 100 µM; in [9] it was above 79.4 µM; in [10] it was 0.643 µM.
As to `COc1c(CCC[P+](c2ccccc2)(c2ccccc2)c2ccccc2)cc2c(c1OC)OCO2`, the GI50 in assay [1] is 14.7 µM; in assay [2], 3.42 µM; in [3] it was 1.08 µM; in assay [4], 0.462 µM; in [5] it was 3.12 µM; in [6] it was 1.45 µM. Also, the GI50 was 0.629 µM in assay [7], 1.59 µM in [8], 2.04 µM in assay [9] and 1.07 µM in [10]. Also, the TGI is 71.1 µM in [1]; 14.5 µM in assay [2]; 18.8 µM in [3]; 5.03 µM in [4]; 16.3 µM in assay [5]; 4.56 µM in assay [6]. Besides, the TGI turned out to be 18 µM in assay [7], 12.5 µM in assay [8], 13.1 µM in [9] and 15 µM in assay [10].
For `CC(C)(C)C#CC1=C(Br)C(=O)OC1`, the GI50 is 1.6 µM in [1]; 0.454 µM in assay [2]; 0.116 µM in assay [3]; 7.44 µM in [4]; 1.26 µM in [5]; 3.72 µM in [6]. For the same compound, the GI50 was 0.935 µM in assay [7], 1.85 µM in assay [8], 12.7 µM in [9] and above 100 µM in assay [10]. For the same compound, the TGI in assay [1] was above 22.3 µM; in [2] it was 1.48 µM; in assay [3], above 100 µM; in assay [4], 24.1 µM; in assay [5], 5.03 µM; in [6] it was 15.1 µM. Besides, the TGI in assay [7] is 4.28 µM; in [8], 19.6 µM; in [9], 33.3 µM; in assay [10] it was above 100 µM.
For the compound `COC(=O)[C@]12CC[C@@H](C)[C@H](C)[C@@H]1C1=CC[C@@H]3[C@@]4(C)C[C@@H](OC(C)=O)[C@H](O)[C@@](C)(COC(C)=O)[C@@H]4[C@H](O)C[C@@]3(C)[C@]1(C)CC2`, the GI50 was 2.51 µM in assay [1]; 1.89 µM in [2]; 1.82 µM in assay [3]; 2.95 µM in assay [4]; 1.66 µM in assay [5]; 2.05 µM in assay [6]. Also, the GI50 in [7] is 2.74 µM; in [8], 3.23 µM; in [9] it was 3.11 µM; in assay [10] it was 1.72 µM. For the same compound, the TGI is 9.01 µM in [1]; 4.1 µM in [2]; 3.7 µM in assay [3]; 10.7 µM in assay [4]; 4.24 µM in assay [5]; 4.02 µM in assay [6]. For the same compound, the TGI was found to be 7.24 µM in assay [7], 14.2 µM in [8], 13.6 µM in assay [9] and 4.31 µM in assay [10].
`C=CCc1c2c(c(OC)c3ccoc13)C(=O)/C(=C/c1ccccc1OC)O2`: the GI50 in assay [1] is 3.6 µM; in assay [2], 4.98 µM; in assay [3], 3.98 µM; in assay [4] it was 3.12 µM; in assay [5] it was 3.52 µM; in assay [6], 3.46 µM. The GI50 in assay [7] was 3.28 µM; in assay [8], 3.34 µM; in [9], 3.73 µM; in [10], 3.16 µM. For the same compound, the TGI was above 100 µM in [1]; 46.3 µM in assay [2]; above 100 µM in assay [3]; above 100 µM in [4]; above 100 µM in assay [5]; above 100 µM in assay [6]. In addition, the TGI is 12.2 µM in assay [7], above 100 µM in [8], 60.4 µM in [9] and above 100 µM in assay [10].
Turning to `COC(=O)/C=C/C=C(c1ccccc1)c1ccccc1`, the GI50 is 3.79 µM in assay [1]; 4.14 µM in assay [2]; 3.85 µM in [3]; 1.63 µM in assay [4]; 14.2 µM in assay [5]; 3.67 µM in assay [6]. Besides, the GI50 in assay [7] is 2.4 µM; in [8] it was 8.59 µM; in assay [9] it was 4.63 µM; in assay [10], 4.51 µM. Moreover, the TGI in assay [1] is 42.1 µM; in assay [2] it was 40.9 µM; in assay [3], above 100 µM; in assay [4], 4.37 µM; in assay [5], above 100 µM; in [6], 15.2 µM. The TGI is 8.24 µM in assay [7], above 100 µM in assay [8], above 100 µM in assay [9] and above 100 µM in [10].
Turning to `COc1cccc(/C=C/C(=O)c2cccc(Nc3nc(Nc4ccccc4)nc(Nc4ccccc4)n3)c2)c1`, the GI50 was 9.59 µM in assay [1]; above 46.9 µM in assay [2]; 4.36 µM in [3]; 14.5 µM in assay [4]; 3.86 µM in [5]; 9.01 µM in assay [6]. Further, the GI50 was 9.16 µM in [7], 19.5 µM in assay [8], 20.9 µM in assay [9] and 1.89 µM in assay [10]. Also, the TGI in assay [1] is above 100 µM; in assay [2] it was above 78.1 µM; in assay [3] it was above 81.7 µM; in [4] it was above 59.7 µM; in assay [5] it was 26.3 µM; in assay [6], above 61.8 µM. In addition, the TGI in assay [7] was 33.5 µM; in [8], above 100 µM; in assay [9], above 89.9 µM; in assay [10], 9.13 µM.
`COc1ccc(C(=O)/C=C/c2ccc(/C=C/c3cc(OC)c(OC)c(OC)c3)cc2)cc1`: the GI50 in assay [1] was 2.42 µM; in assay [2], 12.8 µM; in [3], 4.17 µM; in [4], 4.28 µM; in [5] it was 3.49 µM; in [6] it was 8.65 µM. The GI50 was 3.92 µM in [7], 6.31 µM in [8], 6.08 µM in assay [9] and 1.98 µM in assay [10]. For the same compound, the TGI in assay [1] is above 100 µM; in [2] it was 63.8 µM; in [3] it was above 100 µM; in [4], 47.7 µM; in [5], above 100 µM; in assay [6], above 100 µM. In addition, the TGI in [7] was 14.3 µM; in assay [8] it was 47.3 µM; in assay [9], 88.3 µM; in assay [10] it was above 100 µM.
With `O=C(Cn1ccc(=O)[nH]c1=O)Nc1ccc(C(=O)O)c(O)c1`, the TGI in assay [1], in assay [2], in assay [3], in [4], in assay [5] and in [6] was above 100 µM throughout. Also, the TGI in [7], in assay [8], in [9] and in assay [10] was above 100 µM each time.
With `Cc1sc(C(=O)Nc2cc(C(=O)NCCCN(C)C)n(C)c2)cc1NC(=O)CCCN1C(=O)c2cccc3cccc(c23)C1=O`, the GI50 in assay [1] is above 100 µM; in assay [2], above 100 µM; in assay [3], above 100 µM; in assay [4] it was above 100 µM; in assay [5], 88.3 µM; in [6], above 100 µM. Moreover, the GI50 in assay [7] was above 100 µM; in assay [8], 41 µM; in [9] it was above 100 µM; in [10], above 100 µM. In addition, the TGI in assay [1], in [2], in assay [3], in [4], in [5] and in assay [6] was above 100 µM throughout. For the same compound, the TGI in [7], in assay [8], in assay [9] and in assay [10] was above 100 µM each time.
With `CCN(CC)CCn1ccc(=O)c2cc3c(=O)ccn(CCN(CC)CC)c3c(C)c21`, the TGI is 15.6 µM in assay [1]; 19.7 µM in assay [2]; 12.7 µM in assay [3]; 16.7 µM in [4]; above 100 µM in assay [5]; 3.47 µM in assay [6]. Further, the TGI in assay [7] was 23.6 µM; in assay [8], 9.43 µM; in [9] it was 17.2 µM; in assay [10], 3.94 µM.
